Experimental data taken from US20040009973A1, “Novel potassium channels modulators” (4SC AG, priority 2002, published 2004).

Target: T1, BK potassium channel, cloned hSlo (α-hSlo and β-bSlo) in CHO cells (Homo sapiens, UniProt Q12791)
T1 construct: expressed in transfected cells; host or cells: CHO cells, permanently transfected
Experiment: Em-Assay: membrane potential with voltage sensitive dye DiBAC(4)3, fluorescence plate reader
Type: cell-based
Conditions: compound 50 μM; NS004 25 or 50 μM; hSlo transfected CHO cells; change in DiBAC(4)3 fluorescence intensity
Description: The large conductance, voltage-dependent and Ca^2+-activated potassium channel BK is a potassium selective ion channel and belongs to the subfamily of KCa channels. Four BK alpha-subunits form a functional channel that can be regulated by intracellular Ca^2+ concentration, membrane voltage, and other mechanisms like phosphorylation states or beta subunits. To test the biological activity of the compounds, we applied two different techniques, a fluorescence based assay using a voltage sensitive dye (Em-Assay) as well as exploiting electrophysiological methods.
CHO cells permanently transfected with cloned hSlo (α-hSlo and β-bSlo), yielding typical BK potassium currents (Zhou et al., Pflügers Arch., 436: 725-734 (1998), were used for the evaluation of compound activity. Activation or inhibition of BK channels in these cells leads to a change of the electrochemical gradient causing a hyperpolarized or depolarised membrane potential, respectively.
To determine changes in the membrane potential of the cells we used the voltage sensitive dye DiBAC(4)3 (Molecular Probes) in a kinetic assay system using a fluorescent plate reader (Manning and Sontheimer, J. Neurosci, Meth., 91: 73-81 (1999). The anionic bis-oxonol DiBAC(4)3 is a voltage sensitive dye which partitions from the extracellular environment into the cell where it reversibly binds to intracellular proteins, a kinetic process depending on the membrane potential of the cell. At depolarised potentials (i.e. at a reduced K^+ efflux due to blocked K^+ channels) the dye accumulates in the cell leading to an increased fluorescence intensity, due to its increased fluorescence if bound to cellular proteins. At hyperpolarized potentials (i.e. at an increased K^+ efflux due to the opening of K^+ channels), the dye partitions out of the cell causing a decreased fluorescence intensity.
hSlo transfected CHO cells where maintained in DMEM supplemented with 10% FCS, 250 μg/ml Geneticin, 100 μg/ml Hygromycin, 1×HT-Supplement, and 1×Non-essential Amino Acids and cultured in a humidified CO2 incubator. After trypsination, cells where plated with a density of 5×10^4 cells per well on a clear 96-well plate and incubated for 24 h. Cells where washed once with PBS, once with PBS containing 20 mM HEPES (adjusted to pH 7.4 with NaOH) and 2 μM DIBAC(4)3 (DPBS-DiBAC solution). 180 μl of the dPBS-DiBAC solution was then added to the cells and the plate incubated for 30-60 min at 37° C. During this time the dye could partition into the cells and reach a certain steady-state distribution, depending on the resting membrane potential. Test and reference compounds were stored as DMSO stock solutions and diluted in dPBS-DiBAC solution to the desired concentration.
Fluorescence intensity (Ex.: 485 nm/Em.: 520 nm) of each well was detected in the plate reader (Fluostar, BMG) every 60 seconds. After recording the baseline fluorescence for 7 minutes, 20 μl test—and reference compounds were added and the fluorescence intensity was detected for additional 15 minutes. Background was subtracted, data values were normalized and expressed as a change in fluorescence intensity against time. The change in fluorescence intensity caused by the test compounds was evaluated, compared to the effect of the reference compound NS004, and the ratio was determined (see Table I).

T1 sequence (Q12791 1-1178 isoform Q12791-5): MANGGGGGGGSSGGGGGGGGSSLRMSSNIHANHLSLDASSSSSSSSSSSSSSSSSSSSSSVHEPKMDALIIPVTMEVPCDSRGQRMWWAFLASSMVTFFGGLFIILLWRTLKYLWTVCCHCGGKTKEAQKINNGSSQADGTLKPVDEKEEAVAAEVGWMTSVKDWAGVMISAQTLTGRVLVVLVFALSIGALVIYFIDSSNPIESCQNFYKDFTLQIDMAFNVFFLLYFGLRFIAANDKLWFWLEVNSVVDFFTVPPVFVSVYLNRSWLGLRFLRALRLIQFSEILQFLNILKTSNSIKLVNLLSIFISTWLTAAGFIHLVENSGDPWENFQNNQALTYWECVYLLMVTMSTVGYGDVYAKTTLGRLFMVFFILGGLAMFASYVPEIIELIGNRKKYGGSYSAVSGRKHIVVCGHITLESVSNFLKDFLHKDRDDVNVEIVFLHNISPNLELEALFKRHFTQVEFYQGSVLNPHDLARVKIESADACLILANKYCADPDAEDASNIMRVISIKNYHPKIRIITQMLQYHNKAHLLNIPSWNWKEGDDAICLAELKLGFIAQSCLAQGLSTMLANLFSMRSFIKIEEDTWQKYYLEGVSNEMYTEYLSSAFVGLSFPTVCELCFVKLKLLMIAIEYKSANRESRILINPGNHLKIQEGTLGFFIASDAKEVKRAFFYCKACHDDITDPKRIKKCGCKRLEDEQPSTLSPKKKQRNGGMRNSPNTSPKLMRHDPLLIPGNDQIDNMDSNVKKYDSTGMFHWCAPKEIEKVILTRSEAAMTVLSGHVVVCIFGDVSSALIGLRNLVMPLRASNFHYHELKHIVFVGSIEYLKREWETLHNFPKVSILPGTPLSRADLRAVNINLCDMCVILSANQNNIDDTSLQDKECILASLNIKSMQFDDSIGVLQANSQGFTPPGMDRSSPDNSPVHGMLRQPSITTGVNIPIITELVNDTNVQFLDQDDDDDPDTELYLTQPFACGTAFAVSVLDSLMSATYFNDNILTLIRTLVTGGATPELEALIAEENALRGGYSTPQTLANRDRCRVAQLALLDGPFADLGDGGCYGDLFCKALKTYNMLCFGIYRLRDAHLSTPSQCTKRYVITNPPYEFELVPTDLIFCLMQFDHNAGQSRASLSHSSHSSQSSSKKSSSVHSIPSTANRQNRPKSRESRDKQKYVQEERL
T1 sequence (Q28067 2-191 partner limits assumed): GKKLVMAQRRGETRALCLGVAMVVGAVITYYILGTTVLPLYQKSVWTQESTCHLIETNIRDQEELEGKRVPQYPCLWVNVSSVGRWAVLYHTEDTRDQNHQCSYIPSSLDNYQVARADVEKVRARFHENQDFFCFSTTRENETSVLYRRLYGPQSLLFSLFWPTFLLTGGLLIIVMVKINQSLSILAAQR

With `N#Cc1ccccc1-c1ccc(CNc2cc(NCc3ccc(-c4ccccc4C#N)cc3)cc(C(F)(F)F)c2)cc1` [Compound 73] the “Em effect: ratio of the compound effect compared to the maximal effect of NS004” value (“Em effect: ratio of the compound effect” below) was “+ (0-1 = +)”.

With `Fc1cccc(CNc2ccc(NCc3cccc(F)c3)c(Cl)c2)c1` [Compound 107] the “Em effect: ratio of the compound effect” value was “+ (0-1 = +)”.

With `O=[N+]([O-])c1ccc(CNc2ccc(NCc3ccc4ccccc4c3)cc2Cl)cc1` [Compound 25] the “Em effect: ratio of the compound effect” value was “+ (0-1 = +)”.

For `FC(F)(F)c1ccccc1CNc1cccc(NCc2ccc(-c3csnn3)cc2)c1` [Compound 61, N-(4-[1,2,3]thiadiazol-4-yl-benzyl)-N′-(2-tri-fluoromethylbenzyl)-benzene-1,3-diamine], the “Em effect: ratio of the compound effect” value was “+ (0-1 = +)”.

In the case of `Fc1ccc(CNc2cccc(NCc3cccc(Cl)c3)c2)c(F)c1` [Compound 55, N-(3-chlorobenzyl)-N′-(2,4-difluorobenzyl)-benzene-1,3-diamine], the “Em effect: ratio of the compound effect” value is reported as “+ (0-1 = +)”.

In the case of `Clc1ccccc1CNc1ccc(NCc2ccccc2Cl)cc1` [Compound 95, N,N′-bis-(2-chlorobenzyl)-benzene-1,4-diamine], the “Em effect: ratio of the compound effect” value is reported as “+ (0-1 = +)”.

With `FC(F)(F)c1ccccc1CNc1ccc(NCc2ccccc2C(F)(F)F)cc1` [Compound 97] the “Em effect: ratio of the compound effect” value was “+ (0-1 = +)”.

In the case of `COc1cccc(CNc2cc(Cl)c(NCc3cccc(OC)c3)c(Cl)c2)c1` [Compound 90, 2,6-dichloro-N,N′-bis-(3-methoxy-benzyl)-benzene-1,4-diamine], the “Em effect: ratio of the compound effect” value is reported as “+ (0-1 = +)”.

With `O=[N+]([O-])c1ccc(CNc2cccc(NCc3ccc([N+](=O)[O-])cc3)c2)cc1` [Compound 10] the “Em effect: ratio of the compound effect” value was “+ (0-1 = +)”.

For `COc1cccc(CNc2cc(NCc3ccc(C(F)(F)F)cc3)cc(C(F)(F)F)c2)c1` [Compound 83, N-(3-methoxybenzyl)-5-tri-fluoromethyl-N′-(4-tri-fluoromethylbenzyl)-benzene-1,3-diamine], the “Em effect: ratio of the compound effect” value was “+ (0-1 = +)”.

In the case of `CC(C)(C)c1ccc(CNc2cccc(NCc3ccc(-c4csnn4)cc3)c2)cc1` [Compound 41], the “Em effect: ratio of the compound effect” value is reported as “+ (0-1 = +)”.

With `Fc1cccc(F)c1CNc1cccc(NCc2csc3ccc(Cl)cc23)c1` [Compound 49, N-(5-chlorobenzo[b]thiophen-3-ylmetbyl)-N′-(2,6-difluorobenzyl)-benzene-1,3-diamine] the “Em effect: ratio of the compound effect” value was “+ (0-1 = +)”.

`Clc1cc(NCc2ccc(-c3csnn3)cc2)cc(Cl)c1NCc1ccc(-c2csnn2)cc1` [Compound 91] was tested, and the “Em effect: ratio of the compound effect” value was “+ (0-1 = +)”.

In the case of `FC(F)(F)c1cc(NCc2ccc(Br)cc2)cc(NCc2ccc(Br)cc2)c1` [Compound 2], the “Em effect: ratio of the compound effect” value is reported as “+ (0-1 = +)”.

`COc1cccc(CNc2cc(NCc3cccc(OC)c3)cc(C(F)(F)F)c2)c1` [Compound 76, N,N′-bis-(3-methoxybenzyl)-5-trifluoromethylbenzene-1,3-diamine] was tested, and the “Em effect: ratio of the compound effect” value was “+ (0-1 = +)”.

With `COc1cccc(CNc2cccc(NCc3ccc(-c4csnn4)cc3)c2)c1` [Compound 59, N-(3-methoxybenzyl)-N′-(4-[1,2,3]thiadiazol-4-yl-benzyl)-benzene-1,3-diamine] the “Em effect: ratio of the compound effect” value was “+ (0-1 = +)”.

`Cc1cc(NCc2ccc(Br)cc2)ccc1NCc1ccc(Br)cc1` [Compound 18] was tested, and the “Em effect: ratio of the compound effect” value was “+ (0-1 = +)”.

For `O=[N+]([O-])c1ccc(CNc2cc(NCc3ccc4ccccc4c3)cc(C(F)(F)F)c2)cc1` [Compound 8], the “Em effect: ratio of the compound effect” value was “+ (0-1 = +)”.

`Fc1cccc(Cl)c1CNc1ccc(NCc2c(F)cccc2Cl)c(Cl)c1` [Compound 94] was tested, and the “Em effect: ratio of the compound effect” value was “+ (0-1 = +)”.

For `Fc1ccc(CNc2cccc(NCc3ccc(F)cc3F)c2)c(F)c1` [Compound 28, N,N′-bis-(2,4-difluorobenzyl)-benzene-1,3-diamine], the “Em effect: ratio of the compound effect” value was “++ (>1-1.5 = ++)”.

With `Clc1cc(NCc2ccc(-c3csnn3)cc2)c(Cl)cc1NCc1ccc(-c2csnn2)cc1` [Compound 89] the “Em effect: ratio of the compound effect” value was “+ (0-1 = +)”.

`Fc1cccc(F)c1CNc1cccc(NCc2c(F)cccc2F)c1` [Compound 34, N,N′-bis-(2,6-difluorobenzyl)-benzene-1,3-diamine] was tested, and the “Em effect: ratio of the compound effect” value was “+ (0-1 = +)”.

For `Cc1cc(NCc2c(F)cccc2Cl)ccc1NCc1c(F)cccc1Cl` [Compound 93], the “Em effect: ratio of the compound effect” value was “+ (0-1 = +)”.

In the case of `CS(=O)(=O)c1ccc(CNc2cccc(NCc3ccccc3C(F)(F)F)c2)cc1` [Compound 63, N-(4-methanesulfonylbenzyl)-N′-(2-tri-fluoromethylbenzyl)-benzene-1,3-diamine], the “Em effect: ratio of the compound effect” value is reported as “+ (0-1 = +)”.

`Clc1ccccc1CNc1ccc(NCc2ccccc2Cl)c(Cl)c1` [Compound 96] was tested, and the “Em effect: ratio of the compound effect” value was “+ (0-1 = +)”.

`O=[N+]([O-])c1ccc(CNc2cc(NCc3ccc([N+](=O)[O-])cc3)cc(C(F)(F)F)c2)cc1` [Compound 1] was tested, and the “Em effect: ratio of the compound effect” value was “+ (0-1 = +)”.

With `FC(F)(F)c1cc(NCc2cccc(Cl)c2)cc(NCc2cccc(Cl)c2)c1` [Compound 3] the “Em effect: ratio of the compound effect” value was “+ (0-1 = +)”.

In the case of `FC(F)(F)c1cc(NCc2ccccc2Cl)cc(NCc2ccccc2Cl)c1` [Compound 75], the “Em effect: ratio of the compound effect” value is reported as “+ (0-1 = +)”.

With `Clc1cccc(CNc2ccc(NCc3ccc4ccccc4c3)c(Cl)c2)c1` [Compound 22] the “Em effect: ratio of the compound effect” value was “+ (0-1 = +)”.

For `Cc1cc(NCc2cccc(Cl)c2)ccc1NCc1cccc(Cl)c1` [Compound 17], the “Em effect: ratio of the compound effect” value was “+ (0-1 = +)”.

`Clc1cc(NCc2ccc(Br)cc2)ccc1NCc1ccccc1` [Compound 19] was tested, and the “Em effect: ratio of the compound effect” value was “+ (0-1 = +)”.

For `Clc1cccc(CNc2ccc(NCc3ccccc3)c(Cl)c2)c1` [Compound 20, N′-Benzyl-2-chloro-N^4-(3-chlorobenzyl)-benzene-1,4-diamine], the “Em effect: ratio of the compound effect” value was “+ (0-1 = +)”.

For `O=[N+]([O-])c1ccc(CNc2cc(NCc3ccccc3C(F)(F)F)cc(C(F)(F)F)c2)o1` [Compound 85], the “Em effect: ratio of the compound effect” value was “+ (0-1 = +)”.

With `FC(F)(F)c1ccccc1CNc1cccc(NCc2ccccc2C(F)(F)F)c1` [Compound 39] the “Em effect: ratio of the compound effect” value was “++ (>1-1.5 = ++)”.

`N#Cc1cccc(CNc2cccc(NCc3ccc(C(F)(F)F)cc3)c2)c1` [Compound 68] was tested, and the “Em effect: ratio of the compound effect” value was “+ (0-1 = +)”.
